This passage reports EC50 results from patent EP4563146A1 (IRBM S.P.A., priority 2023, dated 2025).

Like-named read-outs stand apart in the source and are kept apart here. Where only a bound is given, the exact number is not on record here.

The subject of the experiment is ZIKV replicon. The experiment is described as follows: ZIKV replication inhibition assay (NanoLuc replicon in Vero cells). Particulars: Zika virus, Vero, 72 h. A general note: Replicon systems follow genome replication, usually without infectious particles.
The mark [1] stands for this setting: read-out: ZIKA Cell_Nanoluc, Vero cells with stable ZIKV replicon, 72 h, Nano-Glo readout.

In the case of `O=C(Cc1ccccc1)Nc1cc(NC(=O)[N-]c2c[n+](C3CCNCC3)no2)cc(C(F)(F)F)c1` [Example 99, ((3-(2-Phenylacetamido)-5-(trifluoromethyl)-phenyl)carbamoyl)(3-(piperidin-4-yl)-1,2,3-oxadiazol-3-ium-5-yl)amide], the EC50 under setting [1] lay within 1 to 20 µM.
With `O=C(CCOC1CCCC1)Nc1cc(NC(=O)[N-]c2c[n+](Cc3ccccn3)no2)cc(C(F)(F)F)c1` [Example 73], the EC50 (read-out: ZIKA Cell_Nanoluc) was in the range of 1 to 20 µM.
In the case of `O=C([N-]c1c[n+](Cc2ccccn2)no1)Nc1cc(NCCc2ccccc2)cc(C(F)(F)F)c1` [Example 53, ((3-(Phenethylamino)-5-(trifluoromethyl)-phenyl)carbamoyl)(3-(pyridin-2-ylmethyl)-1,2,3-oxadiazol-3-ium-5-yl)amide], the EC50 under setting [1] lay within 1 to 20 µM.
As to `O=C([N-]c1c[n+](C[C@H]2CC[C@H](NCC(F)(F)F)CC2)no1)Nc1cc(N2CCC(c3ccccc3)C2=O)cc(C(F)(F)F)c1` (stereo partly drawn) [Example 137, ((3-(2-Oxo-3-phenylpyrrolidin-1-yl)-5-(trifluoromethyl)phenyl)carbamoyl)(3-(((1R,4R)-4-((2,2,2-trifluoroethyl)amino)-cyclohexyl)methyl)-1,2,3-oxadiazol-3-ium-5-yl)amide], the EC50 (read-out: ZIKA Cell_Nanoluc) was 0.1 to 1 µM.
With `O=C([N-]c1c[n+](Cc2ccccn2)no1)Nc1cc(NC(=O)C2CN(C3CC3)C2)cc(C(F)(F)F)c1` [Example 77], under “read-out: ZIKA Cell_Nanoluc”, the EC50 was greater than 20 µM.
Take `CC(C)n1ccc(C(=O)Nc2cc(NC(=O)[N-]c3c[n+](Cc4ccccn4)no3)cc(C(F)(F)F)c2)n1` [Example 48]: the EC50 (read-out: ZIKA Cell_Nanoluc) fell in the range of 1 to 20 µM.
`COc1ncc(-c2ccc(C[n+]3cc([N-]C(=O)Nc4cc(NC(=O)Cc5ccccc5)cc(C(F)(F)F)c4)on3)nc2)c(C)n1` [Example 13, (3-((5-(2-Methoxy-4-methylpyrimidin-5-yl)pyridin-2-yl)methyl)-1,2,3-oxadiazol-3-ium-5-yl)((3-(2-phenylacetamido)-5-(trifluoromethyl)phenyl)carbamoyl)amide]: the EC50 under setting [1] was 0.1 to 1 µM.
Turning to `O=C(Cc1ccccc1)Nc1cc(NC(=O)[N-]c2c[n+](Cc3ccccn3)no2)cc(C(F)(F)F)c1` [Example 7, ((3-(2-Phenylacetamido)-5-(trifluoromethyl)phenyl)carbamoyl)(3-(pyridin-2-ylmethyl)-1,2,3-oxadiazol-3-ium-5-yl)amide], the EC50 under setting [1] is 0.1 to 1 µM.
Consider `COc1ccc(CC(=O)Nc2cc(NC(=O)[N-]c3c[n+](Cc4ccc(-c5cnc(OC)nc5C)cc4)no3)cc(C(F)(F)F)c2)cc1` [Example 16, (3-(4-(2-Methoxy-4-methylpyrimidin-5-yl)benzyl)-1,2,3-oxadiazol-3-ium-5-yl)((3-(2-(4-methoxyphenyl)acetamido)-5-(trifluoromethyl)phenyl)carbamoyl)amide], for which the EC50 under setting [1] lay in the range of 1 to 20 µM.
Turning to `O=C(Cc1ccccc1)Nc1cc(NC(=O)[N-]c2c[n+](Cc3ccc(C(=O)O)cc3)no2)cc(C(F)(F)F)c1` [Example 101, (3-(4-Carboxybenzyl)-1,2,3-oxadiazol-3-ium-5-yl)((3-(2-phenylacetamido)-5-(trifluoromethyl)phenyl)carbamoyl)amide], the EC50 under setting [1] was greater than 20 µM.
For the compound `O=C(Cc1ccccc1)Nc1cc(NC(=O)[N-]c2c[n+](CC3CNCCCO3)no2)cc(C(F)(F)F)c1` (stereo not shown) [Example 115, (3-((1,4-oxazepan-2-yl)methyl)-1,2,3-oxadiazol-3-ium-5-yl)((3-(2-phenylacetamido)-5-(trifluoromethyl)phenyl)carbamoyl)amide], under setting [1], the EC50 is 1 to 20 µM.
In the case of `CN1CC(C(=O)Nc2cc(NC(=O)[N-]c3c[n+](Cc4ccccn4)no3)cc(C(F)(F)F)c2)C1` [Example 49], the EC50 (read-out: ZIKA Cell_Nanoluc) was in the range of 1 to 20 µM.
As to `Cn1cncc1-c1ccc(C[n+]2cc([N-]C(=O)Nc3cc(NC(=O)Cc4ccccc4)cc(C(F)(F)F)c3)on2)nc1` [Example 6, (3-((5-(1-Methyl-1H-imidazol-5-yl)pyridin-2-yl)methyl)-1,2,3-oxadiazol-3-ium-5-yl)((3-(2-phenylacetamido)-5-(trifluoromethyl)phenyl)carbamoyl)amide], the EC50 under setting [1] was in the range of 1 to 20 µM.
For `O=C([N-]c1c[n+](Cc2ccccn2)no1)Nc1cc(NC(=O)C2CCCC3(CCOC3)O2)cc(C(F)(F)F)c1` (stereo not shown) [Example 84], for the setting “read-out: ZIKA Cell_Nanoluc”, the EC50 fell in the range of 1 to 20 µM.
Regarding `COc1ncc(-c2ccc(C[n+]3cc([N-]C(=O)Nc4cc(NC(=O)Cc5ccccc5Cl)cc(C(F)(F)F)c4)on3)cc2)c(C)n1` [Example 21, ((3-(2-(2-Chlorophenyl)acetamido)-5-(trifluoromethyl)phenyl)carbamoyl)(3-(4-(2-methoxy-4-methylpyrimidin-5-yl)benzyl)-1,2,3-oxadiazol-3-ium-5-yl)amide], the EC50 under setting [1] is 0.1 to 1 µM.
With `O=C([N-]c1c[n+](C[C@H]2CC[C@@H](NCC(F)(F)F)CC2)no1)Nc1cc(N2CCC(c3ccccc3)C2=O)cc(C(F)(F)F)c1` (stereo partly shown) [Example 136, ((3-(2-Oxo-3-phenylpyrrolidin-1-yl)-5-(trifluoromethyl)phenyl)carbamoyl)(3-(((1s,4s)-4-((2,2,2-trifluoroethyl)amino)cyclohexyl)methyl)-1,2,3-oxadiazol-3-ium-5-yl)amide], the EC50 (read-out: ZIKA Cell_Nanoluc) was in the range of 0.1 to 1 µM.
In the case of `CN1Cc2cc(C(=O)Nc3cc(NC(=O)[N-]c4c[n+](Cc5ccccn5)no4)cc(C(F)(F)F)c3)sc2C1` [Example 39], for the setting “read-out: ZIKA Cell_Nanoluc”, the EC50 is 1 to 20 µM.
With `O=C([N-]c1c[n+](Cc2ccccn2)no1)Nc1cc(NC(=O)C2CC2c2ccccc2)cc(C(F)(F)F)c1` (stereo not shown) [Example 50], where the note is “read-out: ZIKA Cell_Nanoluc”, the EC50 lay within 0.1 to 1 µM.
In the case of `NC1C2COCC1CC([n+]1cc([N-]C(=O)Nc3cc(NC(=O)Cc4ccccc4)cc(C(F)(F)F)c3)on1)C2` (stereo not shown) [Example 112, (3-(9-Amino-3-oxabicyclo[3.3.1]nonan-7-yl)-1,2,3-oxadiazol-3-ium-5-yl)((3-(2-phenylacetamido)-5-(trifluoromethyl)phenyl)carbamoyl)amide], the EC50 under setting [1] was greater than 20 µM.
In the case of `O=C([N-]c1c[n+](Cc2ccccn2)no1)Nc1cc(NC(=O)c2ccc3c(n2)CCO3)cc(C(F)(F)F)c1` [Example 79], under “read-out: ZIKA Cell_Nanoluc”, the EC50 lay within 1 to 20 µM.
`CC(C(=O)Nc1cc(NC(=O)[N-]c2c[n+](Cc3ccccn3)no2)cc(C(F)(F)F)c1)c1ccccc1` (stereo not shown) [Example 32]: the EC50 (read-out: ZIKA Cell_Nanoluc) fell in the range of 0.1 to 1 µM.
As to `Cn1ccc(CC(=O)Nc2cc(NC(=O)[N-]c3c[n+](Cc4ccccn4)no3)cc(C(F)(F)F)c2)n1` [Example 40], the EC50 (read-out: ZIKA Cell_Nanoluc) was in the range of 1 to 20 µM.
`O=C([N-]c1c[n+](Cc2ccccn2)no1)Nc1cc(N2CC(c3ccccc3)CC2=O)cc(C(F)(F)F)c1` (stereo not shown) [Example 122, ((3-(2-Oxo-4-phenylpyrrolidin-1-yl)-5-(trifluoromethyl)phenyl)carbamoyl)(3-(pyridin-2-ylmethyl)-1,2,3-oxadiazol-3-ium-5-yl)amide]: the EC50 under setting [1] fell in the range of 1 to 20 µM.
For `O=C([N-]c1c[n+](Cc2ccccn2)no1)Nc1cc(NC(=O)c2[nH]cc3c2CCC3)cc(C(F)(F)F)c1` [Example 87, (3-(Pyridin-2-ylmethyl)-1,2,3-oxadiazol-3-ium-5-yl)((3-(2,4,5,6-tetrahydrocyclopenta[c]pyrrole-1-carboxamido)-5-(trifluoromethyl)phenyl)-carbamoyl)amide], under setting [1], the EC50 is greater than 20 µM.
`CC(c1ccc(C(=O)Nc2cc(NC(=O)[N-]c3c[n+](Cc4ccccn4)no3)cc(C(F)(F)F)c2)cc1)S(N)(=O)=O` (stereo not shown) [Example 78, (3-(Pyridin-2-ylmethyl)-1,2,3-oxadiazol-3-ium-5-yl)((3-(4-(1-sulfamoylethyl)-benzamido)-5-(trifluoromethyl)phenyl)carbamoyl)amide]: the EC50 under setting [1] is greater than 20 µM.
`O=C([N-]c1c[n+](Cc2ccccn2)no1)Nc1cc(NC(=O)c2ccon2)cc(C(F)(F)F)c1` [Example 44]: where the note is “read-out: ZIKA Cell_Nanoluc”, the EC50 was in the range of 1 to 20 µM.
Take `O=C([N-]c1c[n+](Cc2ccccn2)no1)Nc1cc(NC(=O)[C@H]2C[C@](O)(c3ccccn3)C2)cc(C(F)(F)F)c1` [Example 69]: the EC50 (read-out: ZIKA Cell_Nanoluc) is greater than 20 µM.
Turning to `O=C(Cc1ccccc1)Nc1cc(NC(=O)[N-]c2c[n+](Cc3ccccc3)no2)cc(C(F)(F)F)c1` [Example 28, (3-Benzyl-1,2,3-oxadiazol-3-ium-5-yl)((3-(2-phenylacetamido)-5-(trifluoro-methyl)phenyl)carbamoyl)amide], the EC50 under setting [1] lay in the range of 1 to 20 µM.
Take `Cc1ccc(CN2CCC(C(=O)Nc3cc(NC(=O)[N-]c4c[n+](Cc5ccccn5)no4)cc(C(F)(F)F)c3)CC2)o1` [Example 70]: the EC50 (read-out: ZIKA Cell_Nanoluc) is greater than 20 µM.
Take `O=C(CC1CCC1)Nc1cc(NC(=O)[N-]c2c[n+](Cc3ccccn3)no2)cc(C(F)(F)F)c1` [Example 54]: where the note is “read-out: ZIKA Cell_Nanoluc”, the EC50 fell in the range of 1 to 20 µM.
`O=C([N-]c1c[n+](C[C@H]2CC[C@H](NC(=O)C(F)(F)F)CC2)no1)Nc1cc(N2CC[C@H](c3ccccc3)C2=O)cc(C(F)(F)F)c1` [Example 145, ((3-((R)-2-Oxo-3-phenylpyrrolidin-1-yl)-5-(trifluoromethyl)phenyl)carbamoyl)(3-(((1R,4R)-4-(2,2,2-trifluoroacetamido)cyclohexyl)methyl)-1,2,3-oxadiazol-3-ium-5-yl)amide]: the EC50 (read-out: ZIKA Cell_Nanoluc) was in the range of 1 to 20 µM.
Take `Cc1cc(NC(=O)Cc2ccccc2)cc(NC(=O)[N-]c2c[n+](Cc3ccccn3)no2)c1` [Example 57, ((3-Methyl-5-(2-phenylacetamido)phenyl)carbamoyl)(3-(pyridin-2-ylmethyl)-1,2,3-oxadiazol-3-ium-5-yl)amide]: under setting [1], the EC50 was greater than 20 µM.
Turning to `COC(=O)c1ccc(C[n+]2cc([N-]C(=O)Nc3cc(NC(=O)Cc4ccccc4)cc(C4CC4)c3)on2)nc1` [Example 128, ((3-Cyclopropyl-5-(2-phenylacetamido)phenyl)-carbamoyl)(3-((5-(methoxycarbonyl)pyridin-2-yl)methyl)-1,2,3-oxadiazol-3-ium-5-yl)amide], the EC50 under setting [1] lay within 1 to 20 µM.
Consider `O=C(Cc1ccc(=O)[nH]c1)Nc1cc(NC(=O)[N-]c2c[n+](Cc3ccccn3)no2)cc(C(F)(F)F)c1` [Example 123, ((3-(2-(6-Oxo-1,6-dihydropyridin-3-yl)acetamido)-5-(trifluoromethyl)phenyl)-carbamoyl)(3-(pyridin-2-ylmethyl)-1,2,3-oxadiazol-3-ium-5-yl)amide], for which, under setting [1], the EC50 was greater than 20 µM.
